This is an account of results in article PMC10706121, “Bioactive Polyketides from the Natural Complex of the Sea Urchin-Associated Fungi Penicillium sajarovii KMM 4718 and Aspergillus protuberus KMM 4747” (International Journal of Molecular Sciences, 2023).

Data set [1] has as its system normal rat cardiomyocyte H9c2 cells. Kind of data set: Cell viability assay (MTT), cytotoxic activity. The class given is cell-based. To be noted: 100 µM. The procedure: (§1) The HepG2 and H9c2 cells were cultured in DMEM medium (Biolot, St. Petersburg, Russia) containing 10% fetal bovine serum (Biolot, St. Petersburg, Russia) and 1% penicillin/streptomycin (Biolot, St. Petersburg, Russia) at 37 °C in a humidified atmosphere with 5% (v/v) CO2.
(§2) The HepG2 and H9c2 cells were seeded at concentrations of 5× 10^3 and 3×10^3 cell/well, respectively, and the experiments were started after 24 h. The compounds at concentrations up to 100 µM were added into the wells for 24 h, and the viability of the cells was measured by an MTT (3-(4,5-dimethylthiazol-2-yl)-2,5-diphenyltetrazolium bromide) assay, which was performed according to the manufacturer’s instructions (Sigma-Aldrich, Munich, Germany). All compounds were dissolved with DMSO so that the final concentration of DMSO in the cell culture was not more than 1%. Moreover, DMSO was used as a control. The absorbance of the resulting solution was measured at 570 nm with a microplate reader MultiscanFC (ThermoLabsystems Inc., Beverly, MA, USA). The results are presented as a percent of the control data and calculated IC50.

Data set [2] can be described thus: Cell viability assay (MTT), cytotoxic activity. The class given is cell-based, human. Particulars: 24 h, MTT; for viability at 24 h, 10 µM / viability at 24 h, 100 µM: percent of control. As to the method:
as §1, §2

Data set [3] has as its system human hepatocarcinoma HepG2 cells. Nature of the data set: Cell viability assay (MTT), cytotoxic activity. The class given is cell-based. To be noted: 100 µM. The procedure: as §1, §2
Data set [4] deals with T1, urease from Canavalia ensiformis (Canavalia ensiformis, UniProt P07374).
T1 construct: purchased Sigma
Nature of the data set: Urease inhibition assay (indophenol method, cell-free). Format: biochemical. The procedure:
A reaction mixture consisting of 25 µL of enzyme solution (urease from Canavalia ensiformis, Sigma, 1U final concentration) and 5 µL of test compounds dissolved in water (10–300.0 µM final concentration) was preincubated at 37 °C for 60 min in 96-well plates. Then, 55 µL of phosphate-buffered solution with […] of urea was added to each well and incubated at 37 °C for 10 min. The urease inhibitory activity was estimated by determining ammonia production using the indophenol method. Briefly, 45 µL of phenol reagent (1% w/v phenol and 0.005% w/v sodium nitroprusside) and 70 µL of alkali reagent (0.5% w/v NaOH and 0.1% active chloride NaClO) were added to each well. The absorbance was measured after 50 min at 630 nm using a MultiskanFS microplate reader (Thermo Scientific Inc., Beverly, MA, USA). All reactions were performed in triplicate in a final volume of 200 µL. The pH was maintained at 7.3–7.5 in all assays. DMSO 5% was used as a positive control.

Another data set has as its system Candida albicans KMM 455. Kind of data set: Antimicrobial activity, inhibition of microbial growth (OD620). The class given is cell-based. To be noted: for inhibition at 100 µM: Candida albicans. As to the method:
(§3) The yeast-like fungi of Candida albicans KMM 455 and bacterial strains Staphylococcus aureus ATCC 21027 and Escherichia coli VKPM (B-7935) (Collection of Marine Microorganisms PIBOC FEB RAS) were cultured on solid-medium Mueller Hinton broth with agar (16.0 g/L) in a Petri dish at 37 °C for 24 h.
(§4) The assays were performed in 96-well microplates in appropriate Mueller Hinton broth. Each well contained 90 µL of bacterial or of a yeast-like fungi suspension (10^9 CFU/mL). Then, 10 µL of a compound diluted at concentrations ranging from 1.5 to 100.0 µM using a 2-fold dilution was added (DMSO concentration < 1%). Culture plates were incubated overnight at 37 °C, and the OD620 was measured using a Multiskan FS spectrophotometer (Thermo Scientific Inc., Beverly, MA, USA). The antibiotic gentamicin and antifungal agent nitrofungin were used as positive controls at 1 mg/mL; 1% DMSO in PBS served as a negative control.

In data set [5] the test system is Staphylococcus aureus ATCC 21027. Described as above. Particulars: Staphylococcus aureus. Format: cell-based. As to the method: as §3, §4
Data set [6] deals with Escherichia coli VKPM (B-7935). The data set is described as above. Format: cell-based. Particulars: Escherichia coli, read-out: Inhibition of Microbial Growth, E. coli. The procedure:
as §3, §4

Data set [7] concerns S. aureus-infected H9c2 cardiomyocytes. Nature of the data set: Staphylococcus aureus-induced infection of H9c2 cardiomyocytes (in vitro model of infectious myocarditis, MTT). Format: cell-based, rat. Particulars: 1 and 10 µM. The procedure:
The H9c2 cells were seeded at concentrations of 3 × 10^3 cell/well. After 24 h, the cell culture media was changed with an S. aureus bacterial suspension (10^2 CFU/mL) prepared in full DMEM culture media. The investigated compounds at concentrations of 1 and 10 µM were added after 1 h and the cells were incubated for 48 h. The S. aureus suspension with compounds at the same concentrations was used as a control. MTT reagent was added to all wells and formazan production was detected with the microplate reader MultiscanFC (ThermoLabsystems Inc., Beverly, MA, USA). The viability of S. aureus-infected cells was calculated as:Viability, relative units = (OD cells+Sa +comp − OD Sa+comp)/(OD cells+Sa − OD Sa)

The subject of another data set is Escherichia coli. Set-up: method as in doi:10.1007/s11274-009-0062-y. To be noted: cited from earlier work.
Another data set concerns Bacillus subtilis. The arrangement: method as in doi:10.1007/s11274-009-0062-y. Particulars: cited from earlier work.
A further data set relates to Candida albicans. The arrangement: method as in doi:10.1007/s11274-009-0062-y. Particulars: cited from earlier work.
In a further data set the test system is Pseudomonas fluorescens. The arrangement: method as in doi:10.1007/s11274-009-0062-y. Particulars: cited from earlier work.
[8] abbreviates: human, read-out: HepG2 Cell Viability.
The mark [9] stands for this setting: rat, read-out: H9c2 Cell Viability.
[10] abbreviates: human, HepG2 hepatocarcinoma cells.

≈ marks a conversion by molar mass, not a printed value. Entries after “also recorded” stand apart in the source; their conditions may differ. Where two headings read alike, the source gives them in different places.

T1 sequence (P07374 whole entry, looked up): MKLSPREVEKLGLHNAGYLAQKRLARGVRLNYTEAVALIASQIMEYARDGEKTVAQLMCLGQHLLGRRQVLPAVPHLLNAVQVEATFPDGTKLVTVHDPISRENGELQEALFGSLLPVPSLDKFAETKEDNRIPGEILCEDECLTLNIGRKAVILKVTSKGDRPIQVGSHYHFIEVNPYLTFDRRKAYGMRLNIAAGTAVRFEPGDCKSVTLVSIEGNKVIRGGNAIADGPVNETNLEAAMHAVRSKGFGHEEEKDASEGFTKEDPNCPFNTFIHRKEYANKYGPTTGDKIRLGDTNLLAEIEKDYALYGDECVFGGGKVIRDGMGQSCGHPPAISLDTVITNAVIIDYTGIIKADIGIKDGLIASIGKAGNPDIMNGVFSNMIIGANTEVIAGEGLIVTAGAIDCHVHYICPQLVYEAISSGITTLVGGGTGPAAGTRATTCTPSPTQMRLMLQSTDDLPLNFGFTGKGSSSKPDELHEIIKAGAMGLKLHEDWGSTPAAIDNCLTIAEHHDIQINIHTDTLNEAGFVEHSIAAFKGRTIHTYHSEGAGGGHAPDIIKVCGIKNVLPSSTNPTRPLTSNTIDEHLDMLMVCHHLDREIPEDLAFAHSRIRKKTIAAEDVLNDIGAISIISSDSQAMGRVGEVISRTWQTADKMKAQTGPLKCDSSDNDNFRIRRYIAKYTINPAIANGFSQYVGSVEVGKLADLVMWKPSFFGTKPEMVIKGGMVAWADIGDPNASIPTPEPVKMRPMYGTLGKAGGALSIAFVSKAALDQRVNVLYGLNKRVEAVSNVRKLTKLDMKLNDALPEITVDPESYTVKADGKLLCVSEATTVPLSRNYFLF

By viability is commonly meant a read-out of living cells in per cent, often relative to untreated cells. A word on the IC50: it is the concentration that inhibits the measured activity by half. Broadly, the inhibition is how much of the control response was suppressed. As for `COc1cc(O)c2c(=O)c3c(C)cc(O)cc3oc2c1` [Compound 6, griseoxanthone C], the “decrease of H9c2 cell viability” value in data set [1] is 36.7%. Also, the viability at 24 h, 10 µM in data set [2] (setting [8]) is 85.7 ± 5.7%; in [2] (setting [9]), 86 ± 4.8%. Besides, the viability at 24 h, 100 µM was found to be 27.1 ± 2.4% in data set [2] (setting [8]) and 63.3 ± 1.4% in [2] (setting [9]). Also, the IC50 at 24 h was 64.7 ± 0.8 µM in data set [2] (human, read-out: HepG2 IC50 (cytotoxic effect)) and greater than 100 µM in data set [2] (rat, read-out: H9c2 IC50 (cytotoxic effect)). Moreover, the “decrease of HepG2 cell viability” value in data set [3] was determined as 72.9%. For the same molecule, the IC50 in [4] amounted to 97.3 ± 1.6 µM. The inhibition at 100 µM in the data set on Candida albicans KMM 455 (KMM455, read-out: Inhibition of Microbial Growth, C. albicans) is less than 10%; in data set [5] (ATCC21027, read-out: Inhibition of Microbial Growth, S. aureus), less than 10%; in data set [6], less than 10%. Besides, the “Inhibition of Microbial Growth, C. albicans” value in the data set on Candida albicans KMM 455 (compounds tested at 100 µM) was “did not affect”. Also, the “effect on the viability of S. aureus-infected H9c2 cardiomyocytes” value in [7] is given as “did not show any statistical effect”.

Regarding `Cc1cc(=O)c2c(C)cc(O)cc2o1` [Compound 4, altechromone A], the “MIC against Escherichia coli” value with Escherichia coli is 3.9 µg/mL (≈ 20.5 µM). The IC50 at 24 h in data set [2] (human, HepG2 cells (human hepatocarcinoma), read-out: HepG2 IC50 (cytotoxic effect)) was greater than 100 µM; in [2] (rat, H9c2 cells (normal rat cardiomyocytes), read-out: H9c2 IC50 (cytotoxic effect)) it was greater than 100 µM. Also, the viability at 24 h, 10 µM in data set [2] (setting [10]) turned out to be 99.2 ± 6.5%; in data set [2] (rat, H9c2 cardiomyocyte cells), 110 ± 2.9%. Also, the viability at 24 h, 100 µM in data set [2] (setting [10]) turned out to be 92.6 ± 4.1%; in data set [2] (rat, H9c2 cardiomyocyte cells), 96.5 ± 3.6%. Moreover, the “MIC against Bacillus subtilis” value with Bacillus subtilis was 3.9 µg/mL (≈ 20.5 µM). Besides, the “MIC against Candida albicans” value with Candida albicans is 3.9 µg/mL (≈ 20.5 µM). The molecule also yielded an IC50 in [4] greater than 100 µM. Also, the “effect on urease activity” value in data set [4] (at concentrations of up to 100 µM) was “no effect; also recorded: very poor”. The inhibition at 100 µM with Candida albicans KMM 455 (KMM455, compounds tested at 100 µM, read-out: Inhibition of Microbial Growth, C. albicans) amounted to 11.1 ± 1.3%; in data set [5] (ATCC21027, compounds tested at 100 µM, read-out: Inhibition of Microbial Growth, S. aureus), 30.1 ± 1.2%; in data set [6] (compounds tested at 100 µM) it was 13.6 ± 0.3%. For the same molecule, the “MIC against Pseudomonas fluorescens” value in the data set with Pseudomonas fluorescens is 1.8 µg/mL (≈ 9.46 µM).
